# Columns and labels:
# [1] = test system: rhythmic bladder contractions; test: Rhythmic bladder contractions in rats (in vivo); parameters: species or system rat; conditions: 0.3 mpk, intravenous, female Sprague-Dawley rats; amplitude reduction of bladder contractions
# Excerpt: [Experimental Example 3] Experiment on Rhythmic Bladder Contractions in Rats (In Vivo)
# Female Sprague-Dawley rat was halothane-anesthetized, and a polyethylene catheter was inserted through urethra lay down straight and fixed. Urine in bladder was excreted through the catheter by gently massaging abdomen of the rat, and then removed. A three-way stopcock was connected to the catheter and a pressure transducer was connected to one side of the three-way stopcock to measure pressure, and a syringe was installed at the other side to inject 37° C. of saline solution. The saline solution was slowly injected until regular bladder contractions occurred repeatedly. When regular bladder contractions occurred stably, test compounds were administered intravenously through the tail vein. Inhibitory effect of the test compounds was evaluated by measuring degree of amplitude reduction of bladder contractions.
# [2] = molecular target: human muscarinic M3 receptor (Homo sapiens (Human), UniProt P20309); test: Binding assay on human muscarinic M3 receptor ([3H]-methyl scopolamine displacement); conditions: membranes overexpressing human M3 receptor, Ki from IC50 by Cheng-Prusoff, read-out: Binding Affinity to M3 Receptor, Ki
# Sequence of human muscarinic M3 receptor (P20309 whole entry): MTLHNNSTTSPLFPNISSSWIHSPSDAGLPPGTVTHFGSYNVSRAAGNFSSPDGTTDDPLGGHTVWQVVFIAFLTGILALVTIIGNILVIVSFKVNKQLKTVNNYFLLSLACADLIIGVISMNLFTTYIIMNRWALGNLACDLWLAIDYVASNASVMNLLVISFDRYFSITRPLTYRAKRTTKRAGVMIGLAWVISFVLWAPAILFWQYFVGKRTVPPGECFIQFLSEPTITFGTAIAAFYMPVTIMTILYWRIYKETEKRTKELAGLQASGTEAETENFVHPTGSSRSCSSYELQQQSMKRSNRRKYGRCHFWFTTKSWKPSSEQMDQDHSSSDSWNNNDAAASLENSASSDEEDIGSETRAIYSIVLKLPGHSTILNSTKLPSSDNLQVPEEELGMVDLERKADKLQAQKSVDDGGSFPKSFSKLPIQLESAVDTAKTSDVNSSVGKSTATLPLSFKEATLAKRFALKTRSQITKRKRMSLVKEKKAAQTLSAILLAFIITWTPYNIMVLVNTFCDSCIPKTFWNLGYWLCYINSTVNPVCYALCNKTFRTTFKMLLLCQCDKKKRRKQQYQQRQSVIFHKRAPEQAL
# Method in brief: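 Displacement of [3H]-methyl scopolamine from membranes overexpressing human M3, in Tris-HCl, 25 °C, 120 min; filter-bound radioactivity counted. Nonspecific binding with 5 μM atropine; Ki from IC50 via Cheng-Prusoff.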
SMILES,Ki [2],Inhibition of Rhythmic bladder contraction in rats [1]
"CN1CCCC1CCOC(=O)Nc1ccccc1-c1cc(Cl)cc(Cl)c1 (centres unmarked) [Example 9, 2-(1-methylpyrrolidin-2-yl)ethyl(3′,5′-dichloro-[1,1′-biphenyl]-2-yl)carbamate]",9.1 nM,9.6 ± 1.6%
"CN1CCCC1CCOC(=O)Nc1ccc(F)cc1-c1cccc(Cl)c1 (centres unmarked) [Example 17, 2-(1-methylpyrrolidin-2-yl)ethyl(3′-chloro-5-fluoro-[1,1′-biphenyl]-2-yl)carbamate]",1 nM,27.9 ± 6.1%
"Cc1ccc(NC(=O)OCCC2CCCN2C)c(-c2ccccc2)c1 (centres unmarked) [Example 26, 2-(1-methylpyrrolidin-2-yl)ethyl(5-methyl-[1,1′-biphenyl]-2-yl)carbamate]",18.5 nM,11.0 ± 2.5%
"CN1CCCC1CCOC(=O)Nc1ccc(F)cc1-c1ccc(Cl)c(Cl)c1 (centres unmarked) [Example 43, 2-(1-methylpyrrolidin-2-yl)ethyl(3′,4′-dichloro-5-fluoro-[1,1′-biphenyl]-2-yl)carbamate]",1.48 nM,8.9 ± 2.3%
"O=C(Nc1ccccc1-c1ccccc1)OC[C@@H]1CCNC1 [Example 78, (R)-pyrrolidin-3-ylmethyl [1,1′-biphenyl]-2-ylcarbamate]",4.62 nM,17.9 ± 2.1%
"CN1CC[C@H](COC(=O)Nc2ccc(F)cc2-c2ccccc2)C1 [Example 93, (S)-(1-methylpyrrolidin-3-yl)methyl (5-fluoro-[1,1′-biphenyl]-2-yl)carbamate]",4.12 nM,27.3 ± 1.9%
"Cc1cccc(-c2ccccc2NC(=O)OC[C@H]2CCN(C)C2)c1 [Example 101, (S)-(1-methylpyrrolidin-3-yl)-methyl(3′-methyl-[1,1′-biphenyl]-2-yl)carbamate]",3.79 nM,20.1 ± 1.7%
"CCN1CCC[C@H]1COC(=O)Nc1ccccc1-c1ccccc1 [Example 106, (S)-(1-ethylpyrrolidin-2-yl)methyl [1,1′-biphenyl]-2-ylcarbamate]",0.8 nM,32.7 ± 5.2%
"CN1CC[C@H](COC(=O)Nc2ccc(F)cc2-c2cccc(F)c2)C1 [Example 108, (S)-(1-methylpyrrolidin-3-yl)-methyl(3′,5-difluoro-[1,1′-biphenyl]-2-yl)carbamate]",3.95 nM,18.1 ± 1.4%
"CN1CCC[C@@H]1COC(=O)Nc1ccccc1-c1ccccc1 [Example 109, (R)-(1-methylpyrrolidin-2-yl)-methyl [1,1′-biphenyl]-2-ylcarbamate]",5.33 nM,18.1 ± 1.7%
"CC(C)N1CCC[C@H]1COC(=O)Nc1ccccc1-c1ccccc1 [Example 112, (S)-(1-isopropylpyrrolidin-2-yl)-methyl [1,1′-biphenyl]-2-ylcarbamate]",3.77 nM,34.8 ± 2.9%
"CN1CC[C@H](COC(=O)Nc2ccccc2-c2ccc(F)c(Cl)c2)C1 [Example 121, (S)-(1-methylpyrrolidin-3-yl)methyl(3′-chloro-4′-fluoro-[1,1′-biphenyl]-2-yl)carbamate]",1.75 nM,31.4 ± 6.1%
"CN1CCC[C@H]1COC(=O)Nc1ccccc1-c1cccc(F)c1 [Example 160, (S)-(1-methylpyrrolidin-2-yl)methyl(3′-fluoro-[1,1′-biphenyl]-2-yl)carbamate]",4.29 nM,15.5 ± 2.4%

# Second part, led by results:
Ki [2],SMILES,Inhibition of Rhythmic bladder contraction in rats [1]
0.63 nM,"CN1CCC[C@H]1COC(=O)Nc1ccccc1-c1cccc(Cl)c1 [Example 165, (S)-(1-methylpyrrolidin-2-yl)methyl(3′-chloro-[1,1′-biphenyl]-2-yl)carbamate]",34.5 ± 2.5%
6.15 nM,"CN1CCC[C@H]1COC(=O)Nc1ccc(F)cc1-c1cc(F)cc(F)c1 [Example 172, (S)-(1-methylpyrrolidin-2-yl)methyl(3′,5,5′-trifluoro-[1,1′-biphenyl]-2-yl)carbamate]",12.4 ± 2.7%
6.32 nM,"CN1CCC[C@H]1COC(=O)Nc1ccc(F)cc1-c1ccc(Cl)c(Cl)c1 [Example 177, (S)-(1-methylpyrrolidin-2-yl)methyl (3′,4′-dichloro-5-fluoro-[1,1′-biphenyl]-2-yl)carbamate]",11.3 ± 2.2%
9.15 nM,"CN1CCC[C@H]1COC(=O)Nc1ccc(F)cc1-c1cccc(C(F)(F)F)c1 [Example 180, (S)-(1-methylpyrrolidin-2-yl)methyl(5-fluoro-3′-(trifluoromethyl)-[1,1′-biphenyl]-2-yl)carbamate]",6.3 ± 1.3%
4.6 nM,"Cc1cccc(-c2cc(F)ccc2NC(=O)OC[C@@H]2CCN(C)C2)c1 [Example 192, (R)-(1-methylpyrrolidin-3-yl)methyl(5-fluoro-3′-methyl-[1,1′-biphenyl]-2-yl)carbamate]",18.6 ± 3.6%
0.78 nM,"CN1CCC[C@H]1COC(=O)Nc1ccccc1-c1ccccc1 [Example 197, (S)-(1-methylpyrrolidin-2-yl)-methyl [1,1′-biphenyl]-2-ylcarbamate]",32.8 ± 9.7%
1.87 nM,"CN1CCC[C@H]1COC(=O)Nc1ccccc1-c1ccc(F)cc1 [Example 198, (S)-(1-methylpyrrolidin-2-yl)methyl(4′-fluoro-[1,1′-biphenyl]-2-yl)carbamate]",26.3 ± 2.4%
2.7 nM,"Cc1cccc(-c2cc(F)ccc2NC(=O)OC[C@@H]2CCCN2C)c1 [Example 201, (S)-(1-methylpyrrolidin-2-yl)methyl (5-fluoro-3′-methyl-[1,1′-biphenyl]-2-yl)carbamate]",9.1 ± 3.0%
2.18 nM,"CN1CCC[C@H]1COC(=O)Nc1ccc(F)cc1-c1cccc(F)c1 [Example 202, (S)-(1-methylpyrrolidin-2-yl)methyl (3′,5-difluoro-[1,1′-biphenyl]-2-yl)carbamate]",17.3 ± 1.3%
2.36 nM,"CN1CCC[C@H]1COC(=O)Nc1ccc(F)cc1-c1ccc(F)cc1 [Example 203, (S)-(1-methylpyrrolidin-2-yl)methyl (4′,5-difluoro-[1,1′-biphenyl]-2-yl)carbamate]",19.4 ± 4.0%
3.53 nM,"CN1CCC[C@H]1COC(=O)Nc1cc(F)ccc1-c1ccccc1 [Example 204, (S)-(1-methylpyrrolidin-2-yl)methyl (4-fluoro-[1,1′-biphenyl]-2-yl)carbamate]",23.3 ± 6.6%
7.95 nM,"CN1CCC[C@H]1COC(=O)Nc1cc(F)ccc1-c1cccc(F)c1 [Example 205, (S)-(1-methylpyrrolidin-2-yl)methyl(3′,4-difluoro-[1,1′-biphenyl]-2-yl)carbamate]",11.9 ± 3.7%

# — patent US9828339B2, “Biphenyl derivatives and methods for preparing same” (DONG-A ST CO., LTD, priority 2013, dated 2017)
